Experimental data taken from patent US10266526B2, “Substituted 1,2,3-triazoles as SMYD inhibitors for treating cancer” (EPIZYME, INC., priority 2014, dated 2019).
Like-named read-outs stand apart in the source and are kept apart here.

Target: SMYD3 (Homo sapiens (Human), UniProt Q9H7B4)
Test: SMYD3 biochemical assay (SMYD3 enzyme assay on MEKK2 protein substrate, 3H-SAM scintillation proximity assay)
In short: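 Detection used scintillation proximity beads to capture ³H-methylated GST-MEKK2 after quench with 100 uM final cold SAM. The reaction was started by SAM/MEKK2 addition after a 30 min RT compound–enzyme preincubation. Enzyme was tag-free full-length human SMYD3 from E. coli, in buffer of 25 mM Tris-Cl pH 8.0, 1 mM TCEP, 0.005% BSG, 0.005% Tween 20.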

[1] = read-out: SMYD3 Biochem IC50 (μM)*

Sequence of SMYD3 (Q9H7B4 whole entry): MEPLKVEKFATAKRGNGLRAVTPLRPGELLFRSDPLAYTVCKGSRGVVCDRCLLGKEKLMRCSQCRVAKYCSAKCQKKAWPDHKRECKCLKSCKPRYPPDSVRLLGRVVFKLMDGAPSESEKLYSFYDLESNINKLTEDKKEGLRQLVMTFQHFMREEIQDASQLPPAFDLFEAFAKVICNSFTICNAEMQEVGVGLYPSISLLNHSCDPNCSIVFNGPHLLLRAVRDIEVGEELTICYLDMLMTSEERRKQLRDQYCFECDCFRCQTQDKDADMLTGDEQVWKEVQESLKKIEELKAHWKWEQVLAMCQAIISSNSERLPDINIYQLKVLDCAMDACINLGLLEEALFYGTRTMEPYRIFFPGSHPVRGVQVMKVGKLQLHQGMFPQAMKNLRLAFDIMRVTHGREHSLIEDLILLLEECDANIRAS

| IC50 [1] | IC50 (read-out: SMYD3 Biochem IC50) | SMILES |
| --- | --- | --- |
| > 100 µM |  | CS(=O)(=O)c1cccc(C(=O)N[C@H]2CC[C@H](N)CC2)c1 [compound 151, N-((1r,4r)-4-aminocyclohexyl)-3-(methylsulfonyl)benzamide] |
| > 100 µM |  | NCCC(=O)N[C@H]1CC[C@H](NC(=O)c2nccnc2N)CC1 [compound 152, 3-amino-N-((1r,4r)-4-(3-aminopropanamido)cyclohexyl)pyrazine-2-carboxamide] |
| > 100 µM |  | Nc1nccnc1C(=O)N[C@H]1CC[C@H](N)CC1 [compound 153, 3-amino-N-((1r,4r)-4-aminocyclohexyl)pyrazine-2-carboxamide] |
| 37.3 µM |  | NCCC(=O)N[C@H]1CC[C@H](NC(=O)c2ccc(-c3ccccc3)cc2)CC1 [compound 154, N-((1r,4r)-4-(3-aminopropanamido)cyclohexyl)-[1,1′-biphenyl]-4-carboxamide] |
| 79.2 µM |  | N[C@H]1CC[C@H](NC(=O)c2ccc(-c3ccccc3)cc2)CC1 [compound 155, N-((1r,4r)-4-aminocyclohexyl)-[1,1′-biphenyl]-4-carboxamide] |
| > 100 µM |  | NCCC(=O)N[C@H]1CC[C@H](NC(=O)c2ccc(S(N)(=O)=O)cc2)CC1 [compound 156, N-((1r,4r)-4-(3-aminopropanamido)cyclohexyl)-4-sulfamoylbenzamide] |
| > 100 µM |  | CC(NC(=O)c1cncc(F)c1)C1CCN(C(=O)[C@H](C)N)CC1 (stereo partly drawn) [compound 157, N-(1-(1-(L-alanyl)piperidin-4-yl)ethyl)-5-fluoronicotinamide] |
| > 100 µM |  | NCCC(=O)N[C@H]1CC[C@H](NC(=O)c2cncc(F)c2)CC1 [compound 158, N-((1r,4r)-4-(3-aminopropanamido)cyclohexyl)-5-fluoronicotinamide] |
| > 100 µM |  | N[C@H]1CC[C@H](NC(=O)c2cncc(F)c2)CC1 [compound 159, N-((1r,4r)-4-aminocyclohexyl)-5-fluoronicotinamide] |
| > 100 µM |  | N[C@H]1CC[C@H](NC(=O)c2ccc3cc[nH]c3c2)CC1 [compound 160, N-((1r,4r)-4-aminocyclohexyl)-1H-indole-6-carboxamide] |
| > 100 µM |  | N[C@H]1CC[C@H](NC(=O)c2ccc3nc[nH]c3c2)CC1 [compound 161, N-((1r,4r)-4-aminocyclohexyl)-1H-benzo[d]imidazole-6-carboxamide] |
| > 100 µM |  | CC(NC(=O)c1ccc2ccccc2n1)C1CCN(C(=O)[C@H](C)N)CC1 (stereo partly drawn) [compound 162, N-(1-(1-(L-alanyl)piperidin-4-yl)ethyl)quinoline-2-carboxamide] |
| > 100 µM |  | NCCC(=O)N[C@H]1CC[C@H](NC(=O)c2ccc3ccccc3n2)CC1 [compound 163, N-((1r,4r)-4-(3-aminopropanamido)cyclohexyl)quinoline-2-carboxamide] |
| > 100 µM |  | N[C@H]1CC[C@H](NC(=O)c2ccc3ccccc3n2)CC1 [compound 164, N-((1r,4r)-4-aminocyclohexyl)quinoline-2-carboxamide] |
| 15.5 µM |  | NCCC(=O)N[C@H]1CC[C@H](NC(=O)c2ccc3cnccc3c2)CC1 [compound 165, N-((1r,4r)-4-(3-aminopropanamido)cyclohexyl)isoquinoline-6-carboxamide] |
| 20.7 µM |  | N[C@H]1CC[C@H](NC(=O)c2ccc3cnccc3c2)CC1 [compound 166, N-((1r,4r)-4-aminocyclohexyl)isoquinoline-6-carboxamide] |
| > 100 µM |  | CC(NC(=O)Cc1c[nH]c2ccccc12)C1CCN(C(=O)[C@H](C)N)CC1 (stereo partly drawn) [compound 167, N-(1-(1-(L-alanyl)piperidin-4-yl)ethyl)-2-(1H-indol-3-yl)acetamide] |
| > 100 µM |  | N[C@H]1CC[C@H](NC(=O)Cc2c[nH]c3ccccc23)CC1 [compound 168, N-((1r,4r)-4-aminocyclohexyl)-2-(1H-indol-3-yl)acetamide] |
| > 100 µM |  | COc1ccc2cc(C(C)C(=O)N[C@H]3CC[C@H](NC(=O)CCN)CC3)ccc2c1 (stereo partly drawn) [compound 169, 3-amino-N-((1r,4r)-4-(2-(6-methoxynaphthalen-2-yl)propanamido)cyclohexyl)propanamide] |
| 76.4 µM |  | COc1ccc2cc(C(C)C(=O)N[C@H]3CC[C@H](N)CC3)ccc2c1 (stereo partly drawn) [compound 170, N-((1r,4r)-4-aminocyclohexyl)-2-(6-methoxynaphthalen-2-yl)propanamide] |
| > 100 µM |  | CC(NC(=O)c1nccc2ccccc12)C1CCN(C(=O)[C@H](C)N)CC1 (stereo partly drawn) [compound 171, N-(1-(1-(L-alanyl)piperidin-4-yl)ethyl)isoquinoline-1-carboxamide] |
| > 100 µM |  | N[C@H]1CC[C@H](NC(=O)c2n[nH]c3ccccc23)CC1 [compound 172, N-((1r,4r)-4-aminocyclohexyl)-1H-indazole-3-carboxamide] |
| 0.63 µM |  | NCC(=O)N[C@H]1CC[C@H](NC(=O)c2ccc3c(c2)CC(=O)N3)CC1 [compound 174, N-((1r,4r)-4-(2-aminoacetamido)cyclohexyl)-2-oxoindoline-5-carboxamide] |

| IC50 [1] | IC50 (read-out: SMYD3 Biochem IC50) | SMILES |
| --- | --- | --- |
| 0.42 µM |  | CC(N)C(=O)N[C@H]1CC[C@H](NC(=O)c2ccc3c(c2)CC(=O)N3)CC1 (stereo partly drawn) [compound 175, N-((1r,4r)-4-(2-aminopropanamido)cyclohexyl)-2-oxoindoline-5-carboxamide] |
| 3.52 µM |  | C[C@H](N)C(=O)N1CCC(C)(CNC(=O)c2ccc3c(c2)CC(=O)N3)CC1 [compound 176, N-((1-(L-alanyl)-4-methylpiperidin-4-yl)methyl)-2-oxoindoline-5-carboxamide] |
| 19.8 µM |  | C[C@@H](N)C(=O)N1CC[C@H](CNC(=O)c2ccc3c(c2)CC(=O)N3)C1 [compound 177, N-(((R)-1-(D-alanyl)pyrrolidin-3-yl)methyl)-2-oxoindoline-5-carboxamide] |
| 3.4 µM |  | CN(C(=O)CCN)C1CCC(NC(=O)c2ccc3c(c2)CC(=O)N3)CC1 (stereo not drawn) [compound 178, N-(4-(3-amino-N-methylpropanamido)cyclohexyl)-2-oxoindoline-5-carboxamide] |
| > 100 µM |  | Cc1nc(-c2ccc(C(=O)NC(C)C3CCN(C(=O)[C@H](C)N)CC3)cc2)no1 (stereo partly drawn) [compound 179, N-(1-(1-(L-alanyl)piperidin-4-yl)ethyl)-4-(5-methyl-1,2,4-oxadiazol-3-yl)benzamide] |
| > 100 µM |  | Cc1n[nH]c(C)c1C(=O)NC(C)C1CCN(C(=O)[C@H](C)N)CC1 (stereo partly drawn) [compound 180, N-(1-(1-(L-alanyl)piperidin-4-yl)ethyl)-3,5-dimethyl-1H-pyrazole-4-carboxamide] |
| > 100 µM |  | Cc1n[nH]c(C)c1C(=O)N[C@H]1CC[C@H](NC(=O)CCN)CC1 [compound 181, N-((1r,4r)-4-(3-aminopropanamido)cyclohexyl)-3,5-dimethyl-1H-pyrazole-4-carboxamide] |
|  | > 100 µM | Cc1n[nH]c(C)c1C(=O)N[C@H]1CC[C@H](N)CC1 [compound 182, N-((1r,4r)-4-aminocyclohexyl)-3,5-dimethyl-1H-pyrazole-4-carboxamide] |
|  | > 100 µM | Cc1ncc(C(=O)NC(C)C2CCN(C(=O)[C@H](C)N)CC2)cn1 (stereo partly drawn) [compound 183, N-(1-(1-(L-alanyl)piperidin-4-yl)ethyl)-2-methylpyrimidine-5-carboxamide] |
|  | 35.8 µM | Cc1ncc(C(=O)N[C@H]2CC[C@H](NC(=O)CCN)CC2)cn1 [compound 184, N-((1r,4r)-4-(3-aminopropanamido)cyclohexyl)-2-methylpyrimidine-5-carboxamide] |
|  | > 100 µM | Cc1cnc(C(=O)NC(C)C2CCN(C(=O)[C@H](C)N)CC2)cn1 (stereo partly drawn) [compound 185, N-(1-(1-(L-alanyl)piperidin-4-yl)ethyl)-5-methylpyrazine-2-carboxamide] |
|  | > 100 µM | Cc1cnc(C(=O)N[C@H]2CC[C@H](N)CC2)cn1 [compound 186, N-((1r,4r)-4-aminocyclohexyl)-5-methylpyrazine-2-carboxamide] |
|  | > 100 µM | CC(NC(=O)c1ccnc(N)c1)C1CCN(C(=O)[C@H](C)N)CC1 (stereo partly drawn) [compound 187, N-(1-(1-(L-alanyl)piperidin-4-yl)ethyl)-2-aminoisonicotinamide] |
|  | > 100 µM | CC(NC(=O)c1nccnc1N)C1CCN(C(=O)[C@H](C)N)CC1 (stereo partly drawn) [compound 188, N-(1-(1-(L-alanyl)piperidin-4-yl)ethyl)-3-aminopyrazine-2-carboxamide] |
|  | > 100 µM | CC(NC(=O)c1ccc(-c2ccccc2)cc1)C1CCN(C(=O)[C@H](C)N)CC1 (stereo partly drawn) [compound 189, N-(1-(1-(L-alanyl)piperidin-4-yl)ethyl)-[1,1′-biphenyl]-4-carboxamide] |
|  | > 100 µM | NS(=O)(=O)c1ccc(C(=O)N[C@H]2CC[C@H](N)CC2)cc1 [compound 190, N-((1r,4r)-4-aminocyclohexyl)-4-sulfamoylbenzamide] |
|  | > 100 µM | CC(NC(=O)c1ccc(O)nn1)C1CCN(C(=O)[C@H](C)N)CC1 (stereo partly drawn) [compound 191, N-(1-(1-(L-alanyl)piperidin-4-yl)ethyl)-6-hydroxypyridazine-3-carboxamide] |
|  | > 100 µM | N[C@H]1CC[C@H](NC(=O)c2ccc3[nH]ccc3c2)CC1 [compound 192, N-((1r,4r)-4-aminocyclohexyl)-1H-indole-5-carboxamide] |
|  | > 100 µM | CC(NC(=O)c1ccc2nc[nH]c2c1)C1CCN(C(=O)[C@H](C)N)CC1 (stereo partly drawn) [compound 193, N-(1-(1-(L-alanyl)piperidin-4-yl)ethyl)-1H-benzo[d]imidazole-6-carboxamide] |
|  | > 100 µM | CC(NC(=O)c1ccc2cnccc2c1)C1CCN(C(=O)[C@H](C)N)CC1 (stereo partly drawn) [compound 194, N-(1-(1-(L-alanyl)piperidin-4-yl)ethyl)isoquinoline-6-carboxamide] |
|  | > 100 µM | NCCC(=O)N[C@H]1CC[C@H](NC(=O)Cc2c[nH]c3ccccc23)CC1 [compound 195, N-((1r,4r)-4-(2-(1H-indol-3-yl)acetamido)cyclohexyl)-3-aminopropanamide] |
|  | > 100 µM | NCCC(=O)N[C@H]1CC[C@H](NC(=O)c2nccc3ccccc23)CC1 [compound 196, N-((1r,4r)-4-(3-aminopropanamido)cyclohexyl)isoquinoline-1-carboxamide] |
